Experimental data taken from patent US11413264B2, “Carbamoyl phenylalaninol analogs and uses thereof” (Jazz Pharmaceuticals Ireland Limited, priority 2017, dated 2022).
Counter-ions that a name gives are not always drawn. Like-named read-outs stand apart in the source and are kept apart here.

Key:
Conditions in all cases: compound at 10 μM
[1] = target: T1, vesicular monoamine transporter (VMAT2) (Rattus norvegicus, UniProt Q01827); assay: Competitive radioligand binding assay, VMAT2 transporter (antagonist radioligand)
T1 construct: Rat brain; from tissue; host or cells: rat brain minus cerebellum, membrane fraction
T1 sequence (Q01827 whole entry): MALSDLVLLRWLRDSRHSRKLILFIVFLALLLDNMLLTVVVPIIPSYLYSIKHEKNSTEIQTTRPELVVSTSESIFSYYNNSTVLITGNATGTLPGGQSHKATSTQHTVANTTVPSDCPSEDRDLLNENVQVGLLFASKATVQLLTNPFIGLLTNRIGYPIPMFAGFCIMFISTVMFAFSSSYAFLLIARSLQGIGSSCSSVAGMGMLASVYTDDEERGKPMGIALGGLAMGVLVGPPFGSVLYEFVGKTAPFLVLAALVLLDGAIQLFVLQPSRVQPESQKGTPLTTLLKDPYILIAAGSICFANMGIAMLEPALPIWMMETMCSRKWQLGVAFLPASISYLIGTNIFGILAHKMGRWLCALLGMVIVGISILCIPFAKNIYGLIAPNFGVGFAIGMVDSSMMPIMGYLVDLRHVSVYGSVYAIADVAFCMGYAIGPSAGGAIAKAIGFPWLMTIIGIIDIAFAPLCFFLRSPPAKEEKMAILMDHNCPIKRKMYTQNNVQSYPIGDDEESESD
Experimental: (§1) Compounds of the invention were tested for pharmacological activity in comparison to APC. Eight binding assays were carried out to provide a binding profile for each compound, including binding to dopamine transporter (DAT), norepinephrine transporter (NET), serotonin (5-HT) transporter (SERT), alpha2A adrenergic receptor (Alpha2A), alpha2C adrenergic receptor (Alpha2C), D2S dopamine receptor (D2S), D2L dopamine receptor (D2L), and vesicular monoamine transporter (VMAT2). Competitive binding assays using a radiolabeled ligand were carried out with each compound at 10 μM. The radioligand for each target was as follows: DAT—BTCP, NET—nisoxetine, SERT—imipramine, Alpha2A—yohimbine, Alpha2C—yohimbine, D2S—7-OH-DPAT, D2L—methylspiperone, VMAT2—tetrabenazine. The source of the receptors and transporters were prepared cell membrane fractions.

[2] = target: T2, norepinephrine transporter (NET) (Homo sapiens, UniProt P23975); assay: Competitive radioligand binding assay, norepinephrine transporter (antagonist radioligand)
T2 construct: expressed in transfected cells; host or cells: CHO cells (membrane fractions)
T2 sequence (P23975 whole entry): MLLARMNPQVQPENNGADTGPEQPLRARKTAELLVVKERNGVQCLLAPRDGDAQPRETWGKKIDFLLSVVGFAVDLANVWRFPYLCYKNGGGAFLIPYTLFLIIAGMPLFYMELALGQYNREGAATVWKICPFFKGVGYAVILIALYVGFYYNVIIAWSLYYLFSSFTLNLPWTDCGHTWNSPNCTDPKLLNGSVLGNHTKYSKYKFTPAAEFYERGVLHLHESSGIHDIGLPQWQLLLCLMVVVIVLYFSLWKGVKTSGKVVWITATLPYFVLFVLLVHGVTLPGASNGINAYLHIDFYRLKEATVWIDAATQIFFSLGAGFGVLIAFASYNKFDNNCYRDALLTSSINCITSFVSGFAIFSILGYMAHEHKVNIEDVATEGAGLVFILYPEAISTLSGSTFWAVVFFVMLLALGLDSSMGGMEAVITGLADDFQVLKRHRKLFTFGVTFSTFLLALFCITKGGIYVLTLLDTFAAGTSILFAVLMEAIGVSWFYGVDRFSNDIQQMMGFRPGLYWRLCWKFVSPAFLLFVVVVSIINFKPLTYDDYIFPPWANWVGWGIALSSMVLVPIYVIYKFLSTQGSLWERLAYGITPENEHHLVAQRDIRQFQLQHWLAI
Experimental: as §1

[3] = target: T3, serotonin (5-HT) transporter (SERT) (Homo sapiens, UniProt P31645); assay: Competitive radioligand binding assay, 5-HT transporter (antagonist radioligand)
T3 construct: expressed in transfected cells; host or cells: CHO cells (membrane fractions)
T3 sequence (P31645 whole entry): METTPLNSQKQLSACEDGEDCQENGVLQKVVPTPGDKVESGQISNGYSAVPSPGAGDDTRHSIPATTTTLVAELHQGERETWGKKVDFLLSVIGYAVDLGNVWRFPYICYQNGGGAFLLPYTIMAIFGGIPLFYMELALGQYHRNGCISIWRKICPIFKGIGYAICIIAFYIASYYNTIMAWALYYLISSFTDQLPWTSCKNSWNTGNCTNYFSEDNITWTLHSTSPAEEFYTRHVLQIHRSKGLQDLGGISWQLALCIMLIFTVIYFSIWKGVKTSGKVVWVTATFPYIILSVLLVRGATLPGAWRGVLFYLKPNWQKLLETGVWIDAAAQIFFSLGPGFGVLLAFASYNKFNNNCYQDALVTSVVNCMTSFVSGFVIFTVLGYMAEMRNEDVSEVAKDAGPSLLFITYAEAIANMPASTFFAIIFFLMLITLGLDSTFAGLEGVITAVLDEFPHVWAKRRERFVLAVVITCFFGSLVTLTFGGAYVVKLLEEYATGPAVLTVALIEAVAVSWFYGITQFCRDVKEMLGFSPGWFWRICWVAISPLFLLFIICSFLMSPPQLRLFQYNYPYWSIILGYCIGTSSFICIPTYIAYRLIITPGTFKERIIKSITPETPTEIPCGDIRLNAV
Experimental: as §1

[4] = target: T4, D2L dopamine receptor (D2L) (Homo sapiens, UniProt P14416); assay: Competitive radioligand binding assay, D2L (antagonist radioligand)
T4 construct: expressed in transfected cells; host or cells: HEK-293 cells (membrane fractions)
T4 sequence (P14416 whole entry): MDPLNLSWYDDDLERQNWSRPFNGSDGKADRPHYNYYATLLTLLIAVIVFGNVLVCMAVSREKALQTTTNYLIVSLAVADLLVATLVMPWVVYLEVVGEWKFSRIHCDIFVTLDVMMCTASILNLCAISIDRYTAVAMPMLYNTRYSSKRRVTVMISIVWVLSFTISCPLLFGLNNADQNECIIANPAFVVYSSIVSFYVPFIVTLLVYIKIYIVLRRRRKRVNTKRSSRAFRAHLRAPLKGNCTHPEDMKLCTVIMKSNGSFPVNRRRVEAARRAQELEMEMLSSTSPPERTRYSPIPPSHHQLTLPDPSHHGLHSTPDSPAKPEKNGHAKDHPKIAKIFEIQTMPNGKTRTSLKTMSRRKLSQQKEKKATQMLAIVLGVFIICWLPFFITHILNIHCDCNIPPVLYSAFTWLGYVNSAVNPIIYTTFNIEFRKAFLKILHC
Experimental: as §1

[5] = target: T5, D2S dopamine receptor (D2S) (Homo sapiens, UniProt P14416); assay: Competitive radioligand binding assay, D2S (agonist radioligand)
T5 construct: expressed in transfected cells; host or cells: HEK-293 cells (membrane fractions)
T5 sequence (P14416 1-414 isoform P14416-2): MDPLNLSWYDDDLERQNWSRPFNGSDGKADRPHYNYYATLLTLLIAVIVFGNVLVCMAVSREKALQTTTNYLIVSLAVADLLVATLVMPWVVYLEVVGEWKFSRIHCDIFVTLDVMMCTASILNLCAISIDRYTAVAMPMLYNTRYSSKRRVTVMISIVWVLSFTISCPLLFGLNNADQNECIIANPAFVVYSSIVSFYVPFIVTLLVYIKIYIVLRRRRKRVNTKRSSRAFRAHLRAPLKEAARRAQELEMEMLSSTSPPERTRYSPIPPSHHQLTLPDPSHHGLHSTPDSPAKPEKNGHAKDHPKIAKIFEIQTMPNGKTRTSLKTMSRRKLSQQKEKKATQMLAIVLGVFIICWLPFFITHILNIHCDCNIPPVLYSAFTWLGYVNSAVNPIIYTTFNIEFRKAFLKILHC
Experimental: as §1

[6] = target: T6, alpha2C adrenergic receptor (Alpha2C) (Homo sapiens, UniProt P18825); assay: Competitive radioligand binding assay, α2C (antagonist radioligand)
T6 construct: expressed in transfected cells; host or cells: CHO cells (membrane fractions)
T6 sequence (P18825 1-462): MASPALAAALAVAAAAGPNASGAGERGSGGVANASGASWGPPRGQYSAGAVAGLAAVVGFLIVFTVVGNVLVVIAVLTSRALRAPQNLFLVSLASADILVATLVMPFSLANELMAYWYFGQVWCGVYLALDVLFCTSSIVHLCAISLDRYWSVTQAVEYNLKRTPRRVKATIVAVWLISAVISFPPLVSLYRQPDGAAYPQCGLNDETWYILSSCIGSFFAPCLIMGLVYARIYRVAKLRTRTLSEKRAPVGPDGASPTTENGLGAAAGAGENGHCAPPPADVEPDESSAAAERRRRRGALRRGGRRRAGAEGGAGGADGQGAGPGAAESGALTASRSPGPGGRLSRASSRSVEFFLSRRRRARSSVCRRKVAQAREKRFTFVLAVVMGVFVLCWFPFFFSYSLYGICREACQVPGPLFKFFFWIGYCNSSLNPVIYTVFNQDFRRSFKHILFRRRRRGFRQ
Experimental: as §1

[7] = target: T7, dopamine transporter (DAT) (Homo sapiens, UniProt Q01959); assay: Competitive radioligand binding assay, dopamine transporter (antagonist radioligand)
T7 construct: expressed in transfected cells; host or cells: CHO cells (membrane fractions)
T7 sequence (Q01959 whole entry): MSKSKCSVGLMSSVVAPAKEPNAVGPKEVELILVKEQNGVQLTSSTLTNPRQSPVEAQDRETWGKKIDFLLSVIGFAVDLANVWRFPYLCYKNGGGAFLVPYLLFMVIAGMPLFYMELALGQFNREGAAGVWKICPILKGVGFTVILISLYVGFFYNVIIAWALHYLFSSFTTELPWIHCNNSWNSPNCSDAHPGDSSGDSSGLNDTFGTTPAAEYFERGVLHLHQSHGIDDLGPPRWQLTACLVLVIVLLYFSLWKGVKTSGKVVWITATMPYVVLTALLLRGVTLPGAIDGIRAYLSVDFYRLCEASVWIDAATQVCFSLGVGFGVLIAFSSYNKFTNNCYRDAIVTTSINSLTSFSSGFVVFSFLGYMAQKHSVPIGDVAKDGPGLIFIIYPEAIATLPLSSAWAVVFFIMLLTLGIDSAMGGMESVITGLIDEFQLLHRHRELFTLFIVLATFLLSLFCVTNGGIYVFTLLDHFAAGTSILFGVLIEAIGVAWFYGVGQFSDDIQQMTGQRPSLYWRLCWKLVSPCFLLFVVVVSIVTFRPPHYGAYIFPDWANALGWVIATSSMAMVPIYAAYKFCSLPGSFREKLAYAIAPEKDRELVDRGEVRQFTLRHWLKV
Experimental: as §1

[8] = target: T8, alpha2A adrenergic receptor (Alpha2A) (Homo sapiens, UniProt P08913); assay: Competitive radioligand binding assay, α2A (antagonist radioligand)
T8 construct: expressed in transfected cells; host or cells: CHO cells (membrane fractions)
T8 sequence (P08913 1-465): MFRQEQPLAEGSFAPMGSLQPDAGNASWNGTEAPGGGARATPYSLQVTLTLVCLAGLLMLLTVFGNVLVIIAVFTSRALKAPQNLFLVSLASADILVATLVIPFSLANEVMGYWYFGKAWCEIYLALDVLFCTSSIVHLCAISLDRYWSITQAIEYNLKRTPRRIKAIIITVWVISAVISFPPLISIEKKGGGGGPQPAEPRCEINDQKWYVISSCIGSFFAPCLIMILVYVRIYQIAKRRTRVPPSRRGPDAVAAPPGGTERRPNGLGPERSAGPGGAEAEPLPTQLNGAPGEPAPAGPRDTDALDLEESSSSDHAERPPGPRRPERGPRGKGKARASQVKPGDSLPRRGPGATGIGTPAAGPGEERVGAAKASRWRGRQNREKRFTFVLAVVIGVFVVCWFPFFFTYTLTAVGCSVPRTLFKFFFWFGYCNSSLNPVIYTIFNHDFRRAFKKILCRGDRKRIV
Experimental: as §1

[9] = 1st individual result, read-out: % inhibition of control specific binding, 1st
[10] = 2nd individual result, read-out: % inhibition of control specific binding, 2nd
[11] = mean, read-out: % inhibition of control specific binding, Mean

## NC(=O)SC[C@H](N)Cc1ccccc1 [Compound 10, (R)—S-(2-Amino-3-phenylpropyl) carbamothioate hydrochloride]
[1]; VMAT2 transporter, single value, read-out: % inhibition of control specific binding, 1st
  inhibition at 10 µM: 5%
[1]; [3H]dihydrotetrabenazine 10 nM, rat brain (minus cerebellum), read-out: % Inhibition of Binding at Each Transporter or Receptor Target, VMAT2
  inhibition at 10 µM: 5%
[2]; Norepinephrine transporter, 1st individual result, read-out: % inhibition of control specific binding, 1st
  inhibition at 10 µM: 91.7%
[2]; Norepinephrine transporter, 2nd individual result, read-out: % inhibition of control specific binding, 2nd
  inhibition at 10 µM: 91.7%
[2]; Norepinephrine transporter, mean, read-out: % inhibition of control specific binding, Mean
  inhibition at 10 µM: 91.7%
[2]; [3H]nisoxetine 1 nM, human recombinant (CHO cells), read-out: % Inhibition of Binding at Each Transporter or Receptor Target, NET
  inhibition at 10 µM: 91.7%
[2]; summary
  binding to the norepinephrine transporter (in words): substantial binding
[3]; 5-HT transporter, 1st individual result, read-out: % inhibition of control specific binding, 1st
  inhibition at 10 µM: 21.7%
[3]; 5-HT transporter, 2nd individual result, read-out: % inhibition of control specific binding, 2nd
  inhibition at 10 µM: 22%
[3]; 5-HT transporter, mean, read-out: % inhibition of control specific binding, Mean
  inhibition at 10 µM: 21.9%
[3]; [3H]imipramine 2 nM, human recombinant (CHO cells), read-out: % Inhibition of Binding at Each Transporter or Receptor Target, SERT
  inhibition at 10 µM: 21.9%
[4]; D2L, 1st individual result, read-out: % inhibition of control specific binding, 1st
  inhibition at 10 µM: 33.7%
[4]; D2L, 2nd individual result, read-out: % inhibition of control specific binding, 2nd
  inhibition at 10 µM: 35.6%
[4]; D2L, mean, read-out: % inhibition of control specific binding, Mean
  inhibition at 10 µM: 34.7%
[4]; [3H]methyl-spiperone 0.3 nM, human recombinant (HEK-293 cells), read-out: % Inhibition of Binding at Each Transporter or Receptor Target, D2L
  inhibition at 10 µM: 34.7%
[5]; D2S, 1st individual result, read-out: % inhibition of control specific binding, 1st
  inhibition at 10 µM: 89.5%
[5]; D2S, 2nd individual result, read-out: % inhibition of control specific binding, 2nd
  inhibition at 10 µM: 90.5%
[5]; D2S, mean, read-out: % inhibition of control specific binding, Mean
  inhibition at 10 µM: 90%
[5]; [3H]7-OH-DPAT 1 nM, human recombinant (HEK-293 cells), read-out: % Inhibition of Binding at Each Transporter or Receptor Target, D2S
  inhibition at 10 µM: 90%
[6]; [9]
  inhibition at 10 µM: 89.3%
[6]; [10]
  inhibition at 10 µM: 92.4%
[6]; [11]
  inhibition at 10 µM: 90.9%
[7]; Dopamine transporter, 1st individual result, read-out: % inhibition of control specific binding, 1st
  inhibition at 10 µM: 85.3%
[7]; Dopamine transporter, 2nd individual result, read-out: % inhibition of control specific binding, 2nd
  inhibition at 10 µM: 87.3%
[7]; Dopamine transporter, mean, read-out: % inhibition of control specific binding, Mean
  inhibition at 10 µM: 86.3%
[7]; [3H]BTCP 4 nM, human recombinant (CHO cells), read-out: % Inhibition of Binding at Each Transporter or Receptor Target, DAT
  inhibition at 10 µM: 86.3%
[7]; summary
  binding to the dopamine transporter (in words): substantial
[8]; [9]
  inhibition at 10 µM: 64.4%
[8]; [10]
  inhibition at 10 µM: 46.1%
[8]; [11]
  inhibition at 10 µM: 55.3%
